# Experiments:
# Type in all cases: cell-based, human
# [1] = tested on: HL60 (promyelocytic leulemia); experiment: MTT growth inhibition, 72 h; settings: HL60, 72 h, mean ± SE
# Description: (§1) [Cu(thp)4][PF6] (CP) was evaluated for its growth inhibition activity on a panel of twelve different human leukemia cell lines (five B-acute lymphoblastic leukemia, three T-acute lymphoblastic leukemia, three acute myeloid leukemia and one chronic myeloid leukemia). Cells were treated for 72 h with CP and cell viability was evaluated by MTT test. […] This abnormal high expression of proteasomal proteins and mRNA seem to be correlated to the hyperproliferation of these cancer cells and to the sensitivity towards proteasome inhibitors.
# (§2) The human leukemia cell lines RS 4;11, SEM, REH, RCH-ACV, MHH-CALL2, Jurkat, CCRF-CEM, HSB2, HL-60, K562, THP-1, MV4;11 were purchased from the American Type Culture Collection. Cells were cultured in RPMI 1640 (Life Technologies, Italy) supplemented with 10% fetal bovine serum (FBS), glutamine (2 mM; Life Technologies, Italy), penicillin (100 U/ml; Life Technologies, Italy) and streptomycin (100 μg/ml; Life Technologies, Italy), and maintained at 37°C in a humidified atmosphere with 5% CO2. The cytotoxic activity of CP was determined using a standard 3-[4,5-dimethylthiazol-2-yl]-2,5-diphenyltetrazodium bromide (MTT) based colorimetric assay (Sigma-Aldrich, Italy). Briefly, cells were seeded at a density of 2×10^4 cells/well in 96-well microtiter plates. After 24 h, cells were exposed to the test compound. After different times, cell survival was determined by the addition of an MTT solution as previously described.
# [2] = tested on: HSB-2 (T-acute lymphoblastic leukemia); experiment: MTT growth inhibition, 72 h; settings: HSB-2, 72 h, mean ± SE
# Description: as §1, §2
# [3] = tested on: MHH-CALL2 (B-acute lymphoblastic leukemia); experiment: MTT growth inhibition, 72 h; settings: MHH-CALL2, 72 h, mean ± SE
# Description: as §1, §2
# [4] = tested on: Jurkat (T-acute lymphoblastic leukemia); experiment: MTT growth inhibition, 72 h; settings: mean ± SE
# Description: as §1, §2
# [5] = tested on: THP-1 (acute myeloid leukemia); experiment: MTT growth inhibition, 72 h; settings: THP-1, 72 h, mean ± SE
# Description: as §1, §2
# [6] = tested on: K562 (chronic myeloid leukemia); experiment: MTT growth inhibition, 72 h; settings: K562, 72 h, mean ± SE
# Description: as §1, §2
# [7] = tested on: REH (B-acute lymphoblastic leukemia); experiment: MTT growth inhibition, 72 h; settings: mean ± SE
# Description: as §1, §2
# [8] = tested on: SEM (B-acute lymphoblastic leukemia); experiment: MTT growth inhibition, 72 h; settings: mean ± SE
# Description: as §1, §2
# [9] = tested on: RS4;11 (B-acute lymphoblastic leukemia); experiment: MTT growth inhibition, 72 h; settings: RS4;11, 72 h, mean ± SE
# Description: as §1, §2
# [10] = tested on: RCH-ACV (B-acute lymphoblastic leukemia); experiment: MTT growth inhibition, 72 h; settings: mean ± SE
# Description: as §1, §2
# [11] = tested on: CCRF-CEM (T-acute lymphoblastic leukemia); experiment: MTT growth inhibition, 72 h; settings: mean ± SE
# Description: as §1, §2
# [12] = tested on: MV4;11 (acute myeloid leukemia); experiment: MTT growth inhibition, 72 h; settings: MV4;11, 72 h, mean ± SE
# Description: as §1, §2
# RS4;11 and SEM cells = experiment: Cytochrome c release by flow cytometry; settings: CP 2.5 μM, 24 h
# Description: To determine whether the apoptotic stimuli involved mitochondria alteration, we examined the mitochondrial transmembrane potential (ΔΨmt) by means of the fluorescence dye JC-1.
# FIGURE 2 CP induces caspase-dependent apoptosis without mitochondria involvement (A) Assessment of mitochondrial membrane potential (ΔΨmt) after treatment of RS4;11 and SEM cells with CP (2.5 μM) for the indicated times. Cells were stained with the fluorescent probe JC-1. Data are represented as mean ± S.E.M. of three independent experiments. (B) Flow cytometric analysis of RS4;11 and SEM cells treated with CP (2.5 μM) for 24 h showing cytochrome c labeled with a monoclonal antibody conjugated to FITC. Representative image of three experiments with similar results. (C) Cells were incubated with CP 2.5 μM and 5 μM in the presence or absence of the pan-caspase inhibitor z-VAD.fmk (100 μM). Cell viability was determined after 48 h by MTT assay. […]
# The mitochondrial membrane potential was measured with the lipophilic cation 5,5',6,6'-tetrachlo-1,1',3,3'-tetraethylbenzimidazolyl-carbocyanine (JC-1) (Life Technologies, Italy) as previously described. Cytochrome c release was analyzed by flow cytometry using a commercial kit (Innocyte flow cytometric cytochrome c release kit, Calbiochem, Italy) following the manufacturer's instructions.
# XBP1 = experiment: PCR analysis of XBP1 splicing; settings: CP 2.5 μM, 12 h
# Description: Moreover we found an increase in CHOP expression starting from 3 h of CP treatment. […] Whilst GRP78, due to its chaperon activity, exerts a protective function, CHOP promotes ER-stress cell death, thus the rapid activation of pro-death signals and the late activation of pro-survival chaperone GRP78 could explain the commitment toward apoptosis induced by CP. Moreover, in unresolvable stress conditions, an increased CHOP expression has been correlated to the induction of the expression of many apoptotic genes and to the down-regulation prosurvival genes, such as Bcl-2 [30].
# FIGURE 4 CP induces ER stress Western Blot analysis showing expression of GRP78 and CHOP in SEM (A) and in RS4;11 (B) cells. Cells were treated with CP 2.5 μM for the indicated times. (C) PCR analysis showing the induction of XBP1 splicing in SEM and RS4;11 cells. Cells were treated with CP (2.5 μM) or Tunicamycin (2 μg/ml) as positive control for 12 h.
# Cells were treated with CP and Tunicamycin as positive control, collected, centrifuged and washed with PBS. Total RNA was extracted from cells using Trizol (Life Technologies, Italy) as previously described. Primer pair used to amplified XBP1 isoforms: forward 5'-[…]-3', reverse 5'-[…]-3'. To separate isoforms, PCR products were run in 5% agarose gel.
smiles,measurement,setting,value
"F[P-](F)(F)(F)(F)F.OCP(CO)CO.OCP(CO)CO.OCP(CO)CO.OCP(CO)CO.[Cu+] [CP, [Cu(thp)4][PF6]]",GI50,[1],12.1 ± 2.8 µM
same,GI50,[2],15.1 ± 0.26 µM
same,GI50,[3],1.9 ± 0.1 µM
same,GI50,[4],16.7 ± 2.6 µM
same,GI50,[5],17.2 ± 1 µM
same,GI50,[6],23.2 ± 1 µM
same,GI50,[7],4.2 ± 0.2 µM
same,GI50,[8],1.6 ± 0.06 µM
same,GI50,[9],0.3 ± 0.01 µM
same,GI50,[10],0.9 ± 0.2 µM
same,GI50,[11],3.9 ± 0.22 µM
same,GI50,[12],1.2 ± 0.2 µM
same,cytochrome c release,RS4;11 and SEM cells,did not reveal cytochrome c release
same,XBP1 splicing,XBP1,induced XBP1 splicing in both cell lines
